Tests used:
[1] = test system: FaDu oral cancer cells; assay: MTT antiproliferative assay, FaDu; format: cell-based; settings: Homo sapiens, FaDu; MTT, 72 h treatment; mean ± SEM; read-out: GI50 for FaDu
Procedure: FaDu cell line was cultured in RPMI-1640 medium containing L-glutamine (300 mg/L) and sodium bicarbonate (2 g/L), while Cal27, HEK293 and HFF-1 cell lines were cultured in DMEM medium containing glucose (4.5 g/L), L-glutamine (584 mg/L) and sodium bicarbonate (3.7 g/L). For gene expression and qPCR studies, RNA isolation was performed using Trizol (Thermo). The reagents and the primer sequences employed for the qPCR assays have been described previously ([Chakraborty et al., 2022]).
The hits derived from the docking study were sourced from either commercial suppliers or pre-existing compounds within our laboratory or were synthesized anew. The FaDu and Cal27 oral cancer cells were treated with the compounds for 72 h at concentrations of 3, 10, 30, and 100 μM. A post-treatment MTT assay was done to evaluate their antiproliferative activity. Table S2 represents the anti-proliferative and enzyme inhibitory activity of the compounds obtained as hits from the structure-based drug design strategy. […] Consequently, 50 μM of all the hit compounds were evaluated for their HK2 enzyme inhibitory activity. 50 μM of compounds were incubated with HK2 protein and the rate of reaction was assessed in kinetic mode (rate of conversion of NAD to NADH). The choice of 50 μM concentration was based primarily on MTT assays and GI50 calculation. The average GI50 values of the hit compounds against less sensitive FaDu cell line was approximately 50 μM. Considering this information, we reasoned that utilizing a concentration equivalent to the average GI50 would allow us to assess the maximum inhibitory effect of the compounds on HK2 enzyme activity. […] The same compounds have been previously reported by our team to have EGFR phosphorylation inhibitory potential and were coded as H2 (compound 14) and H10 (compound 11) ([Chakraborty et al., 2022]). […] Figures 1C,D show the lead compounds H2 and H10 at the active site of HK2 enzyme interacting via H-bonds with the amino acid residues.

[2] = Cytotoxicity in normal HFF1 cells; format: cell-based, human; settings: human, HFF1 cells (normal)
[3] = test system: HFF1; assay: Cytotoxicity in normal HFF1 cells; format: cell-based, human
[4] = test system: FaDu cells; assay: Mitochondria membrane potential by TMRE uptake, FaDu; format: cell-based; settings: 30 μM, 4 h
Procedure: (§1) FaDu and Cal27 cells were treated with test compounds (0.2 million cells per treatment) and were incubated for 1 h with 100 μM of 2-NBDG (Invitrogen, N13195), in glucose free medium, washed with ice-cold PBS, and re-suspended in 500 μL of PBS and maintained on ice to perform flow cytometric analyses within 30 min. The mean fluorescent intensity (MFI) readout reflects the amount of fluorescent glucose analog taken up by the cells, providing insight into their glucose uptake capacity. The percent (%) cell population positive for glucose uptake (shown with a right shift of the histogram peaks) were also plotted for both the cell lines. For MMP analysis, cells were incubated with 200 nM of TMRE (Invitrogen, T669) for 30 min. For each measurement, data was collected for 10,000 events using a BD FACS Aria III (Becton Dickinson, San Jose, CA) instrument.
(§2) Mitochondria utilize the oxidizable substrates to produce a membrane potential as the proton gradient ([Sivandzade et al., 2019]). […] To determine the change in MMP post-treatment with HK2 inhibitors, the cells were treated with 200 nM of TMRE (tetramethyl rhodamine ethyl ester, a cell-permeant cationic dye readily sequestered by active mitochondria) and flow cytometric analyses of TMRE uptake was carried out. […]

[5] = test system: Cal27 cells; assay: Mitochondria membrane potential by TMRE uptake, Cal27; format: cell-based; settings: Cal27, 30 μM, 4 h
Procedure: as §1, §2

## COc1ccc(CNC(=O)c2nc3ccccc3s2)cc1O [Compound 14, N-(3-hydroxy-4methoxybenzyl)benzo[d]thiazole-2-carboxamide]
[1]
  GI50: 63.1 µM
[2]
  CC50: > 100 µM
[3]; CC50/GI50, HFF1 vs Cal27
  Selectivity index (Cal27): >4.6
[3]; CC50/GI50, HFF1 vs FaDu
  Selectivity index (FaDu): >1.6
[4]
  MMP reduction compared to H10 and CCCP: more effective in reducing the MMP
[5]
  MMP reduction compared to H10 and CCCP: more effective in reducing the MMP

From PMC10961359, “Targeting hexokinase 2 for oral cancer therapy: structure-based design and validation of lead compounds” (Frontiers in Pharmacology, 2024)
